Assay results published in patent publication US6982348B2, “Aminoethanol derivatives” (Takeda Pharmaceutical Company Limited, priority 2001, dated 2006).

Row | melting point [°C] | SMILES
1 | 119 to 120 | O=C(O)COc1ccc([C@@H](O)[C@H](Cc2cccc(OC(F)(F)C(F)F)c2)NC(=O)c2cccc3c2C=CCCC3)cc1 (racemic) [Example 251, (4-{(1RS,2SR)-2-[(6,7-dihydro-5H-benzo[a][7]annulen-1-ylcarbonyl)amino]-1-hydroxy-3-[3-(1,1,2,2-tetrafluoroethoxy)phenyl]propyl}phenoxy)acetic acid]
2 | 155 to 156 | COc1cccc([C@H](O)[C@@H](Cc2cccc(OC(F)(F)C(F)F)c2)NC(=O)c2cccc3c2C=CCCC3)c1 (racemic) [Example 253, N-{(1RS,2SR)-2-hydroxy-2-(3-methoxyphenyl)-1-[3-(1,1,2,2-tetrafluoroethoxy)benzyl]ethyl}-6,7-dihydro-5H-benzo[a][7]annulene-1-carboxamide]
3 | 129 to 130 | CC(C)(C)OC(=O)N[C@H](Cc1cccc(OC(F)(F)C(F)F)c1)[C@@H](O)c1ccc(Oc2ccccc2)cn1 (racemic) [Example 254, tert-butyl (1RS,2RS)-2-hydroxy-2-(5-phenoxypyridin-2-yl)-1-[3-(1,1,2,2-tetrafluoroethoxy)benzyl]ethylcarbamate]
4 | 146 to 147 | O=C(N[C@H](Cc1cccc(OC(F)(F)C(F)F)c1)[C@@H](O)c1ccc(Oc2ccccc2)cn1)c1ccc(F)c2ccccc12 (racemic) [Example 256, 4-fluoro-N-{(1RS,2RS)-2-hydroxy-2-(5-phenoxypyridin-2-yl)-1-[3-(1,1,2,2-tetrafluoroethoxy)benzyl]ethyl}-1-naphthamide]
5 | 160 to 161 | O=C(N[C@H](Cc1cccc(OC(F)(F)C(F)F)c1)[C@@H](O)c1ccc(Oc2ccccn2)cc1)c1cccc2c1C=CCCC2 (racemic) [Example 258, N-{(1RS,2SR)-2-hydroxy-2-[4-(pyridin-2-yloxy)phenyl]-1-[3-(1,1,2,2-tetrafluoroethoxy)benzyl]ethyl}-6,7-dihydro-5H-benzo[a][7]annulene-1-carboxamide]
6 | 133 to 134 | O=C(N[C@H](Cc1cccc(OC(F)(F)C(F)F)c1)[C@@H](O)c1ccc(Oc2cccnc2)cc1)c1cccc2c1C=CCCC2 (racemic) [Example 261, N-{(1RS,2SR)-2-hydroxy-2-[4-(pyridin-3-yloxy)phenyl]-1-[3-(1,1,2,2-tetrafluoroethoxy)benzyl]ethyl}-6,7-dihydro-5H-benzo[a][7]annulene-1-carboxamide]
7 | 183 to 184 | O=C(N[C@H](Cc1cccc(OC(F)(F)C(F)F)c1)[C@@H](O)c1ccc(Oc2cccnc2)cc1)c1ccc(F)c2ccccc12 (racemic) [Example 262, 4-fluoro-N-{(1RS,2SR)-2-hydroxy-2-[4-(pyridin-3-yloxy)phenyl]-1-[3-(1,1,2,2-tetrafluoroethoxy)benzyl]ethyl}-1-naphthamide]
8 | 175 to 176 | O=C(N[C@H](Cc1cccc(OC(F)(F)C(F)F)c1)[C@@H](O)c1cccc(F)c1)c1ccc(F)c2ccccc12 (racemic) [Example 263, 4-fluoro-N-{(1RS,2SR)-2-(3-fluorophenyl)-2-hydroxy-1-[3-(1,1,2,2-tetrafluoroethoxy)benzyl]ethyl}-1-naphthamide]
9 | 177 to 178 | O=C(N[C@H](Cc1cccc(OC(F)(F)C(F)F)c1)[C@@H](O)c1cccc(Cl)c1)c1ccc(F)c2ccccc12 (racemic) [Example 264, 4-fluoro-N-{(1RS,2SR)-2-(3-chlorophenyl)-2-hydroxy-1-[3-(1,1,2,2-tetrafluoroethoxy)benzyl]ethyl}-1-naphthamide]
10 | 170 to 171 | O=C(N[C@H](Cc1cccc(OC(F)(F)C(F)F)c1)[C@@H](O)c1ccnc(F)c1)c1ccc(F)c2ccccc12 (racemic) [Example 265, 4-fluoro-N-{(1RS,2SR)-2-(2-fluoropyridin-4-yl)-2-hydroxy-1-[3-(1,1,2,2-tetrafluoroethoxy)benzyl]ethyl}-1-naphthamide]
11 | 185 to 186 | O=C(N[C@H](Cc1cccc(OC(F)(F)C(F)F)c1)[C@@H](O)c1cccc(F)n1)c1ccc(F)c2ccccc12 (racemic) [Example 266, 4-fluoro-N-{(1RS,2RS)-2-(6-fluoropyridin-2-yl)-2-hydroxy-1-[3-(1,1,2,2-tetrafluoroethoxy)benzyl]ethyl}-1-naphthamide]
12 | 184 to 185 | O=C(N[C@H](Cc1ccc2c(c1)OC(F)(F)C(F)(F)O2)[C@@H](O)c1ccc(F)cc1)c1cccc2c1C=CCCC2 (racemic) [Example 270, N-{(1RS,2SR)-2-(4-fluorophenyl)-2-hydroxy-1-[(2,2,3,3-tetrafluoro-2,3-dihydro-1,4-benzodioxin-6-yl)methyl]ethyl}-6,7-dihydro-5H-benzo[a][7]annulene-1-carboxamide]
13 | 142 to 143 | CC(C)(C)c1ccc(C[C@@H](NC(=O)c2cccc3c2C=CCCC3)[C@@H](O)c2cccc(Cl)c2)cc1 (racemic) [Example 272, N-[(1RS,2SR)-1-(4-tert-butylbenzyl)-2-(3-chlorophenyl)-2-hydroxyethyl]-6,7-dihydro-5H-benzo[a][7]annulene-1-carboxamide]
14 | 144 to 145 | CC(C)(C)c1ccc(C[C@@H](NC(=O)c2ccc(F)c3ccccc23)[C@@H](O)c2cccc(Cl)c2)cc1 (racemic) [Example 273, N-[(1RS,2SR)-1-(4-tert-butylbenzyl)-2-(3-chlorophenyl)-2-hydroxyethyl]-4-fluoro-1-naphthamide]

Further lines, the compound ahead of its results:

Row | SMILES | melting point [°C]
15 | O=C(N[C@H](Cc1cccc(OC(F)(F)C(F)F)c1)[C@@H](O)c1ccc(OCCCOc2ccccc2)cc1)c1cccc2c1C=CCCC2 (racemic) [Example 247, N-{(1RS,2SR)-2-hydroxy-2-[4-(3-phenoxypropoxy)phenyl]-1-[3-(1,1,2,2-tetrafluoroethoxy)benzyl]ethyl}-6,7-dihydro-5H-benzo[a][7]annulene-1-carboxamide] | 142 to 143
16 | COC(=O)c1ccc(COc2ccc([C@@H](O)[C@H](Cc3cccc(OC(F)(F)C(F)F)c3)NC(=O)c3cccc4c3C=CCCC4)cc2)cc1 (racemic) [Example 248, methyl 4-[(4-{(1RS,2SR)-2-[(6,7-dihydro-5H-benzo[a][7]annulen-1-ylcarbonyl)amino]-1-hydroxy-3-[3-(1,1,2,2-tetrafluoroethoxy)phenyl]propyl}phenoxy)methyl]benzoate] | 169 to 170
17 | CC(=O)OCCOc1ccc([C@@H](O)[C@H](Cc2cccc(OC(F)(F)C(F)F)c2)NC(=O)c2cccc3c2C=CCCC3)cc1 (racemic) [Example 249, (4-{(1RS,2SR)-2-[(6,7-dihydro-5H-benzo[a][7]annulen-1-ylcarbonyl)amino]-1-hydroxy-3-[3-(1,1,2,2-tetrafluoroethoxy)phenyl]propyl}phenoxy)ethyl acetate] | 125 to 126
18 | O=C(O)c1ccc(COc2ccc([C@@H](O)[C@H](Cc3cccc(OC(F)(F)C(F)F)c3)NC(=O)c3cccc4c3C=CCCC4)cc2)cc1 (racemic) [Example 250, 4-[(4-{(1RS,2SR)-2-[(6,7-dihydro-5H-benzo[a][7]annulen-1-ylcarbonyl)amino]-1-hydroxy-3-[3-(1,1,2,2-tetrafluoroethoxy)phenyl]propyl}phenoxy)methyl]benzoic acid] | 190 to 191
19 | O=C(N[C@H](Cc1cccc(OC(F)(F)C(F)F)c1)[C@@H](O)c1ccc(Oc2ccccc2)cn1)c1cccc2c1C=CCCC2 (racemic) [Example 255, N-{(1RS,2RS)-2-hydroxy-2-(5-phenoxypyridin-2-yl)-1-[3-(1,1,2,2-tetrafluoroethoxy)benzyl]ethyl}-6,7-dihydro-5H-benzo[a][7]annulene-1-carboxamide] | 147 to 148
20 | CC(C)(C)OC(=O)N[C@H](Cc1cccc(OC(F)(F)C(F)F)c1)[C@@H](O)c1ccc(Oc2ccccn2)cc1 (racemic) [Example 257, tert-butyl (1RS,2SR)-2-hydroxy-2-[4-(pyridin-2-yloxy)phenyl]-1-[3-(1,1,2,2-tetrafluoroethoxy)benzyl]ethylcarbamate] | 130 to 131
21 | O=C(N[C@H](Cc1cccc(OC(F)(F)C(F)F)c1)[C@@H](O)c1ccc(Oc2ccccn2)cc1)c1ccc(F)c2ccccc12 (racemic) [Example 259, 4-fluoro-N-{(1RS,2SR)-2-hydroxy-2-[4-(pyridin-2-yloxy)phenyl]-1-[3-(1,1,2,2-tetrafluoroethoxy)benzyl]ethyl}-1-naphthamide] | 176 to 177
22 | CC(C)(C)OC(=O)N[C@H](Cc1cccc(OC(F)(F)C(F)F)c1)[C@@H](O)c1ccc(Oc2cccnc2)cc1 (racemic) [Example 260, tert-butyl (1RS,2SR)-2-hydroxy-2-[4-(pyridin-3-yloxy)phenyl]-1-[3-(1,1,2,2-tetrafluoroethoxy)benzyl]ethylcarbamate] | 123 to 124
23 | O=C(N[C@H](Cc1cccc(OC(F)(F)C(F)F)c1)[C@@H](O)c1ccc(Oc2ccccc2)cc1)c1ccc(F)c2ccccc12 (racemic) [Example 267, 4-fluoro-N-{(1RS,2SR)-2-hydroxy-2-(4-phenoxyphenyl)-1-[3-(1,1,2,2-tetrafluoroethoxy)benzyl]ethyl}-1-naphthamide] | 155 to 156
24 | O=C(N[C@H](Cc1cccc(SC(F)(F)F)c1)[C@@H](O)c1ccc(F)cc1)c1ccc(F)c2ccccc12 (racemic) [Example 269, 4-fluoro-N-((1RS,2SR)-2-(4-fluorophenyl)-2-hydroxy-1-{3-[(trifluoromethyl)thio]benzyl}ethyl)-1-naphthamide] | 192 to 193
25 | CC(C)(C)c1ccc(C[C@@H](NC(=O)c2cccc3c(F)cccc23)[C@@H](O)c2cccc(Cl)c2)cc1 (racemic) [Example 275, N-[(1RS,2SR)-1-(4-tert-butylbenzyl)-2-(3-chlorophenyl)-2-hydroxyethyl]-5-fluoro-1-naphthamide] | 102 to 103
26 | CC(C)(C)Oc1ccc(C[C@@H](NC(=O)c2cccc3c2C=CCCC3)[C@@H](O)c2cccc(Cl)c2)cc1 (racemic) [Example 276, N-[(1RS,2SR)-1-(4-tert-butoxybenzyl)-2-(3-chlorophenyl)-2hydroxyethyl]-6,7-dihydro-5H-benzo[a][7]annulene-1-carboxamide] | 180 to 181
27 | CC(C)(C)Oc1ccc(C[C@@H](NC(=O)c2ccc(F)c3ccccc23)[C@@H](O)c2cccc(Cl)c2)cc1 (racemic) [Example 277, N-[(1RS,2SR)-1-(4-tert-butoxybenzyl)-2-(3-chlorophenyl)-2-hydroxyethyl]-4-fluoro-1-naphthamide] | 161 to 162
